The values that follow come from patent publication US8389524B2, “Tricyclic nitrogen containing compounds as antibacterial agents” (Glaxo Group Limited, priority 2007, dated 2013).

Where a name gives a salt, the structure may show the parent alone.

The subject of the first test is Mycobacterium tuberculosis H37Rv. As to the kind of experiment: Mycobacterium tuberculosis H37Rv Inhibition Assay (resazurin, MIC). It counts as cell-based. To be noted: ATCC 25618 / H37Rv, 144 h, H37Rv strain (ATCC25618), Middlebrook 7H9+ADC, six days at 37° C., resazurin fluorescence after 48 hours, read-out: MIC value. Background: Resazurin is reduced to fluorescent resorufin, in cell work by metabolically active cells.
Broadly, the MIC is the lowest concentration that inhibits growth of the organism. Consider `O=c1ccc2ccc(=O)n3c2n1CC3CN1CCC(NCc2cc3c(cn2)OCCS3)CC1` (racemic) [Example 63, 1-[(4-{[(2,3-Dihydro[1,4]oxathiino[2,3-c]pyridin-7-yl)methyl]amino}-1-piperidinyl)methyl]-1,2-dihydro-4H,9H-imidazo[1,2,3-ij]-1,8-naphthyridine-4,9-dione hydrochloride (2:1 mixture of R:S)], for which the MIC is < 2 µg/mL.

Regarding `CC1(NCc2cc3c(cn2)OCCS3)CCN(C[C@@H]2Cn3c(=O)ccc4ccc(=O)n2c43)CC1` [Example 23, (1R)-1-({4-[(2,3-Dihydro[1,4]oxathiino[2,3-c]pyridin-7-ylmethyl)amino]-4-methyl-1-piperidinyl}methyl)-1,2-dihydro-4H,9H-imidazo[1,2,3-ij]-1,8-naphthyridine-4,9-dione hydrochloride], the MIC is < 2 µg/mL.

Turning to `O=C1CSc2ccc(CNC3CCN(C[C@@H]4Cn5c(=O)ccc6ncc(=O)n4c65)CC3)nc2N1` [Example 29, (2R)-2-[(4-{[(3-Oxo-3,4-dihydro-2H-pyrido[3,2-b][1,4]thiazin-6-yl)methyl]amino}-1-piperidinyl)methyl]-1,2-dihydro-3H,8H-2a,5,8a-triazaacenaphthylene-3,8-dione hydrochloride], the MIC was < 2 µg/mL.

As to `O=C1CSc2cc(Br)c(CNC3CCN(CC4Cn5c(=O)ccc6ccc(=O)n4c65)CC3)nc2N1` (stereo not shown) [Example 4, 1-({4-[(7-Bromo-3-oxo-3,4-Dihydro-2H-pyrido[3,2-b][1,4]thiazin-6-yl-methyl)amino-1-piperidinyl}methyl)1,2-dihydro-4H,9H-imidazo[1,2,3-ij]-1,8-naphthyridine-4,9-dione hydrochloride], the MIC is < 2 µg/mL.

On to `O=c1ccc2ncc(=O)n3c2n1C[C@H]3CN1CCC(NCc2cc3c(cn2)SCO3)CC1` [Example 28, (2R)-2-({4-[([1,3]Oxathiolo[4,5-c]pyridin-6-ylmethyl)amino]-1-piperidinyl}methyl)-1,2-dihydro-3H,8H-2a,5,8a-triazaacenaphthylene-3,8-dione hydrochloride], for which the MIC was < 2 µg/mL.

As to `O=C1COc2cc(Cl)c(CNC3CCN(C[C@@H]4Cn5c(=O)ccc6ccc(=O)n4c65)CC3)nc2N1` [Example 32, (1R)-1-[(4-{[(7-Chloro-3-oxo-3,4-dihydro-2H-pyrido[3,2-b][1,4]oxazin-6-yl)methyl]amino}-1-piperidinyl)methyl]-1,2-dihydro-4H,9H-imidazo[1,2,3-ij]-1,8-naphthyridine-4,9-dione dihydrochloride], the MIC was < 2 µg/mL.

Turning to `O=c1ccc2ccc(=O)n3c2n1C[C@H]3CN1CCC(NCc2ccc3c(c2)OCCO3)CC1` [Example 30, (1R)-1-({4-[(2,3-Dihydro-1,4-benzodioxin-6-ylmethyl)amino]-1-piperidinyl}methyl)-1,2-dihydro-4H,9H-imidazo[1,2,3-ij]-1,8-naphthyridine-4,9-dione hydrochloride], the minimal inhibitory concentration (MIC) was < 2 µg/mL.

The test is the same for the next values; noted with them: ATCC 25618 / H37Rv, 144 h, read-out: MIC value, H37Rv strain (ATCC25618), Middlebrook 7H9+ADC, six days at 37° C., resazurin fluorescence after 48 hours.
Consider `O=c1ccc2ccc(=O)n3c2n1C[C@H]3CN1CCC(NCc2cc3c(cn2)CCCC3)CC1` [Example 7, (1R)-1-({4-[(5,6,7,8-Tetrahydro-3-isoquinolinylmethyl)amino]-1-piperidinyl}methyl)-1,2-dihydro-4H,9H-imidazo[1,2,3-ij]-1,8-naphthyridine-4,9-dione hydrochloride], for which the MIC is < 2 µg/mL.

With `O=c1cnc2ccc(=O)n3c2n1C[C@H]3CN1CCC(NCc2cc3c(cn2)OCS3)CC1` [Example 13A, (1R)-1-({4-[([1,3]Oxathiolo[5,4-c]pyridin-6-ylmethyl)amino]-1-piperidinyl}methyl)-1,2-dihydro-3H,8H-2a,5,8a-triazaacenaphthylene-3,8-dione hydrochloride], the minimum inhibitory concentration (MIC) is < 2 µg/mL.

For `O=c1ccc2ncc(=O)n3c2n1C[C@H]3CN1CCC(NCc2cc3c(cn2)OCCS3)CC1` [Example 19A, (2R)-2-({4-[(2,3-Dihydro[1,4]oxathiino[2,3-c]pyridin-7-ylmethyl)amino]-1-piperidinyl}methyl)-1,2-dihydro-3H,8H-2a,5,8a-triazaacenaphthylene-3,8-dione hydrochloride], the MIC is < 2 µg/mL.

Consider `O=c1ccc2ncc(=O)n3c2n1C[C@H]3CN1CCC(NCc2cc3c(cc2F)OCCO3)CC1` [Example 26, (2R)-2-[(4-{[(7-Fluoro-2,3-dihydro-1,4-benzodioxin-6-yl)methyl]amino}-1-piperidinyl)methyl]-1,2-dihydro-3H,8H-2a,5,8a-triazaacenaphthylene-3,8-dione hydrochloride], for which the MIC was ≤ 1 µg/mL.

Turning to `O=c1ccc2ncc(=O)n3c2n1C[C@H]3CN1CCC(NCc2ccc3c(c2)OCCO3)CC1` [Example 40, (2R)-2-({4-[(2,3-Dihydro-1,4-benzodioxin-6-ylmethyl)amino]-1-piperidinyl}methyl)-1,2-dihydro-3H,8H-2a,5,8a-triazaacenaphthylene-3,8-dione hydrochloride], the MIC was < 2 µg/mL.

With `O=c1ccc2ccc(=O)n3c2n1CC3CN1CCC(NCc2cc3c(cn2)OCS3)CC1` (stereo not shown) [Example 2, 1-({4-[([1,3]Oxathiolo[5,4-c]pyridin-6-ylmethyl)amino]-1-piperidinyl}methyl)-1,2-dihydro-4H,9H-imidazo[1,2,3-ij]-1,8-naphthyridine-4,9-dione hydrochloride], the MIC was < 2 µg/mL.

As to `O=C1CSc2cnc(CNC3CCN(C[C@@H]4Cn5c(=O)ccc6ccc(=O)n4c65)CC3)nc2N1` [Example 34, (1R)-1-[(4-{[(7-Oxo-6,7-dihydro-1H-pyrimido[5,4-b][1,4]thiazin-2-yl)methyl]amino}-1-piperidinyl)methyl]-1,2-dihydro-4H,9H-imidazo[1,2,3-ij]-1,8-naphthyridine-4,9-dione dihydrochloride], the minimum inhibitory concentration (MIC) is < 2 µg/mL.

Consider `O=c1cnc2ccc(=O)n3c2n1C[C@H]3CN1CCC(NCc2ccc3c(c2)OCCO3)CC1` [Example 44, (1R)-1-({4-[(2,3-Dihydro-1,4-benzodioxin-6-ylmethyl)amino]-1-piperidinyl}methyl)-1,2-dihydro-3H,8H-2a,5,8a-triazaacenaphthylene-3,8-dione hydrochloride], for which the MIC is < 2 µg/mL.

As for `O=c1cnc2ccc(=O)n3c2n1C[C@H]3CN1CCC(NCc2cc3c(cn2)OCCC3)CC1` [Example 37, (1R)-1-({4-[(3,4-Dihydro-2H-pyrano[2,3-c]pyridin-6-ylmethyl)amino]-1-piperidinyl}methyl)-1,2-dihydro-3H,8H-2a,5,8a-triazaacenaphthylene-3,8-dione hydrochloride], the MIC is < 2 µg/mL.

With `O=c1ccc2ccc(=O)n3c2n1C[C@H]3CN1CCC(NCc2nc3cccc(F)c3[nH]2)CC1` [Example 46, (1R)-1-[(4-{[(4-Fluoro-1H-benzimidazol-2-yl)methyl]amino}-1-piperidinyl)methyl]-1,2-dihydro-4H,9H-imidazo[1,2,3-ij]-1,8-naphthyridine-4,9-dione dihydrochloride], the MIC is < 2 µg/mL.

Regarding `O=c1ccc2ncc(=O)n3c2n1C[C@H]3CN1CCC(NCc2ccc3nsnc3c2)CC1` [Example 25, (2R)-2-({4-[(2,1,3-Benzothiadiazol-5-ylmethyl)amino]-1-piperidinyl}methyl)-1,2-dihydro-3H,8H-2a,5,8a-triazaacenaphthylene-3,8-dione hydrochloride], the MIC was ≤ 1 µg/mL.

In the case of `O=c1ccc2ccc(=O)n3c2n1C[C@H]3CN1CCC(NCc2ccc3c(c2)OCCC3)CC1` [Example 50, (1R)-1-({4-[(3,4-Dihydro-2H-chromen-7-ylmethyl)amino]-1-piperidinyl}methyl)-1,2-dihydro-4H,9H-imidazo[1,2,3-ij]-1,8-naphthyridine-4,9-dione hydrochloride], the MIC is < 2 µg/mL.

Regarding `O=c1ccc2ncc(=O)n3c2n1CC3CN1CCC(NCc2cc3c(cn2)OCCS3)CC1` (racemic) [Example 20, 2-({4-[(2,3-Dihydro[1,4]oxathiino[2,3-c]pyridin-7-ylmethyl)amino]-1-piperidinyl}methyl)-1,2-dihydro-3H,8H-2a,5,8a-triazaacenaphthylene-3,8-dione hydrochloride], the MIC is < 2 µg/mL.

Take `O=c1ccc2ncc(=O)n3c2n1C[C@H]3CN1CCC(NCc2cc3c(cn2)OCS3)CC1` [Example 16A, (2R)-2-({4-[([1,3]Oxathiolo[5,4-c]pyridin-6-ylmethyl)amino]-1-piperidinyl}methyl)-1,2-dihydro-3H,8H-2a,5,8a-triazaacenaphthylene-3,8-dione hydrochloride]: the MIC is < 2 µg/mL.

On to `O=c1ccc2ccc(=O)n3c2n1C[C@H]3CN1CCC(NCc2cc3c(cn2)OCS3)CC1` [Example 5A, (1R)-1-({4-[([1,3]Oxathiolo[5,4-c]pyridin-6-ylmethyl)amino]-1-piperidinyl}methyl)-1,2-dihydro-4H,9H-imidazo[1,2,3-ij]-1,8-naphthyridine-4,9-dione hydrochloride], for which the MIC is < 2 µg/mL.

For the molecule `O=c1ccc2ccc(=O)n3c2n1C[C@H]3CN1CCC(NCc2cc3c(cn2)CCC3)CC1` [Example 8, (1R)-1-({4-[(6,7-Dihydro-5H-cyclopenta[c]pyridin-3-ylmethyl)amino]-1-piperidinyl}methyl)-1,2-dihydro-4H,9H-imidazo[1,2,3-ij]-1,8-naphthyridine-4,9-dione hydrochloride], the MIC is < 2 µg/mL.

Consider `N#Cc1cc(CNC2CCN(C[C@@H]3Cn4c(=O)ccc5ncc(=O)n3c54)CC2)cc2c1OCCO2` [Example 42, 7-{[(1-{[(2R)-3,8-Dioxo-1,2-dihydro-3H,8H-2a,5,8a-triazaacenaphthylen-2-yl]methyl}-4-piperidinyl)amino]methyl}-2,3-dihydro-1,4-benzodioxin-5-carbonitrile hydrochloride], for which the minimum inhibitory concentration (MIC) was < 2 µg/mL.

Regarding `O=c1ccc2ccc(=O)n3c2n1C[C@H]3CN1CCC(NCc2cc3c(cn2)OCCS3)CC1` [Example 6A, (1R)-1-({4-[(2,3-Dihydro[1,4]oxathiino[2,3-c]pyridin-7-ylmethyl)amino]-1-piperidinyl}methyl)-1,2-dihydro-4H,9H-imidazo[1,2,3-ij]-1,8-naphthyridine-4,9-dione hydrochloride], the minimal inhibitory concentration (MIC) is < 2 µg/mL.
